Test results reported in US4210754A, “Morpholino containing benzamides” (Hoffmann-La Roche Inc., priority 1978, dated 1980).

Experiments:
[1] = toxicity (LD50) p.o. in mice; details: mouse, in vivo, po
Procedure: (§1) The MAO inhibiting activity of the compounds of formula I of the invention can be determined using standard methods. Thus, the compounds of formula I to be tested were administered p.o. to rats. One hour thereafter the animals were killed and the MAO inhibiting activity in the liver homogenates was measured according to the method described in Biochem. Pharmacol. 12 (1963) 1439-1441. The activity thus determined of representative compounds of the present invention and their toxicity can be seen from the ED50 values (μmol/kg.p.o. in rats) and LD50 values (mg/kg, p.o. in mice) listed in the Table which follows: […]

monoamine oxidase (MAO) = experiment: MAO inhibiting activity in liver homogenates of rats after p.o. administration; type: in vivo; details: animals killed one hour after administration, MAO measured in liver homogenates, 60 min
Procedure: as §1

[2] = toxicity (LD50) p.o. in rats; details: rat, in vivo, po, after 10 days

Compound | LD50 [1] [mg/kg] | ED50 (MAO inhibiting activity) (monoamine oxidase (MAO)) [µmol/kg] | LD50 at 240 h [2] [mg/kg]
O=C(NCCN1CCOCC1)c1ccc(Cl)cc1Cl [2,4-dichloro-N-(2-morpholinoethyl)-benzamide] | 1250 to 2500 | 13 | –
O=C(NCCN1CCOCC1)c1ccc(Cl)cc1[N+](=O)[O-] [4-chloro-N-(2-morpholinoethyl)-2-nitrobenzamide] | – | 2 | –
O=C(NCCN1CCOCC1)c1ccc(Br)cc1 [p-bromo-N-(2-morpholinoethyl)-benzamide] | 1250 to 2500 | 6 | –
O=C(NCCN1CCOCC1)c1ccc(Cl)cc1 [p-chloro-N-(2-morpholinoethyl)-benzamide] | – | 5 | 707 ± 55
O=C(NCCN1CCOCC1)c1ccc(F)cc1 [p-fluoro-N-(2-morpholinoethyl)-benzamide] | 1250 to 2500 | 11 | –
O=C(NCCN1CCOCC1)c1ccc(I)cc1 [p-iodo-N-(2-morpholinoethyl)-benzamide] | 1250 to 2500 | 4 | –
CC(C)(C)c1ccc(C(=O)NCCN2CCOCC2)cc1 [p-t-butyl-N-(2-morpholinoethyl)-benzamide] | 1250 to 2500 | 16 | –
O=C(NCCN1CCOCC1)c1ccc(C(F)(F)F)cc1 [α,α,α-trifluoro-N-(2-morpholinoethyl)-p-toluamide] | 1000 to 2000 | 16 | –
